Results from ChEMBL document CHEMBL1132859, “Role of the hydrophobic moiety of tumor promoters. Synthesis and activity of 2-alkylated benzolactams” (Bioorg Med Chem Lett, 2000).

Tests used:
[1] = target: Protein kinase C delta type (Homo sapiens, UniProt Q05655); test: Binding affinity for human recombinant protein kinase C delta
HL-60 = test: Compound was evaluated for its effective dose against HL-60 cells; type: functional; conditions: Homo sapiens, read-out: ED50 (the source's name)

Sequence of Protein kinase C delta type (Q05655 whole entry): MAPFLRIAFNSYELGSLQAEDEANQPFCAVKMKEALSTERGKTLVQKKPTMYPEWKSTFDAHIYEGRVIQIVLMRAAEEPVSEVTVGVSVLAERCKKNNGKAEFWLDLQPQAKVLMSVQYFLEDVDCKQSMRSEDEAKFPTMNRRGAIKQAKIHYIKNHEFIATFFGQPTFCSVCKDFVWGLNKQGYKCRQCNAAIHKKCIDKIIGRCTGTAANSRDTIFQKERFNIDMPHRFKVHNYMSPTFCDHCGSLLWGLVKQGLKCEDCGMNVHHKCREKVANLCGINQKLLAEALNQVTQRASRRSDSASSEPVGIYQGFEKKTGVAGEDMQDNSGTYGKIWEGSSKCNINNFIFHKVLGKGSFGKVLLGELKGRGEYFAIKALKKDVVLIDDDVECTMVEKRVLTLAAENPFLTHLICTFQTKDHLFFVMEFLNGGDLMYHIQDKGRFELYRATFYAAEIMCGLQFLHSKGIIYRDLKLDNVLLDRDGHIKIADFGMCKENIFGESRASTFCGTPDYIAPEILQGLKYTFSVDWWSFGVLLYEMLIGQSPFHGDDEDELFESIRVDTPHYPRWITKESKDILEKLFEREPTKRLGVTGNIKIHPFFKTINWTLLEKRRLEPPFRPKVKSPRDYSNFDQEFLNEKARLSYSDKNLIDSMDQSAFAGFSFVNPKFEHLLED

| EC50 (HL-60) [nM] | Structure (SMILES) | Ki [1] [nM] |
| --- | --- | --- |
| – | CCCCCCCCCCCC[C@H]1C(=O)N[C@H](CO)Cc2ccccc2N1C | 0.8 |
| 70 | CCCCCCCCCCCCCCCCCCCC[C@H]1C(=O)N[C@H](CO)Cc2ccccc2N1C | > 1000 |
| – | CCCCCCCCCCCCCC[C@H]1C(=O)N[C@H](CO)Cc2ccccc2N1C | 0.8 |
| – | CCCCCCCCCC[C@H]1C(=O)N[C@H](CO)Cc2ccccc2N1C | 0.8 |
